Data as given in US11857544B2, “Composition or method including (t)ew-7197 for treating or preventing corneal endothelial diseases” (THE DOSHISHA, priority 2017, dated 2024).

Assays:
[1] = test system: immortalized human corneal endothelial cells from a Fuchs' endothelial corneal dystrophy patient (iFECD); experiment: Suppression of TGF-β-induced corneal endothelial cell disorder, observed under a phase contrast microscope; format: cell-based; settings: for effect of suppressing corneal endothelial cell disorder: Example 1, iFECD, 24 h pretreatment then 10 ng/ml TGF-β 24 h; for effect of suppressing corneal endothelial cell disorders: Example 2, iFECD + TGF-β
Method: The medium was removed from a culture dish culturing immortalized human corneal endothelial cells from a Fuchs' endothelial corneal dystrophy patient (iFECD), and 1×PBS(-) preheated to 37° C. was added and washed. This was repeated twice. 1×PBS(-) was added again and the medium was incubated for 5 minutes at 37° C. (5% CO2). After removing the PBS(-), 0.05% Trypsin-EDTA (Nacalai Tesque, 32778-34) was added and incubated for 5 minutes at 37° C. (5% CO2). The medium was then suspended and centrifuged for 3 minutes at 1500 rpm to retrieve cells. DMEM (Nacalai Tesque, 08456-36)+10% FBS (Biowest, S1820-500)+1% P/S (Nacalai Tesque, 26252-94) was used as the medium. The immortalized human corneal endothelial cells from a Fuchs' endothelial corneal dystrophy patient (iFECD) were seeded on a 12-well plate at a ratio of 8.0×10^4 cells per well and cultured for 24 hours at 37° C. (5% CO2). DMEM+10% FBS+1% P/S was used as the medium. After 24 hours, the medium was exchanged and cultured again for 24 hours. DMEM+2% FBS+1% P/S was used as the medium. After 24 hours, the medium was removed. 10 ng/ml of Transforming Growth Factor-132 Human recombinant (WAKO, 200-19911) was added, and the medium was cultured for 24 hours. DMEM+2% FBS+1% P/S was used as the medium. After 24 hours, the cell morphology and apoptosis were observed under a phase contrast microscope. After […] were seeded on a 12-well plate and cultured for 24 hours, the medium was removed. SB431542 (WAKO, 192-16541) and EW-7197 (Selleck Chemicals, 57530) were added so that the final concentration would each be 0.1, 0.3, 1, 3, or 10 μM, and the medium was cultured for 24 hours. DMEM+2% FBS+1% P/S was used as the medium. After 24 hours, the medium was removed. 10 ng/ml of Transforming Growth Factor-132 Human recombinant (WAKO, 200-19911) as well as SB431542 and EW-7197 were added so that the final concentration would each be 0.1, 0.3, 1, 3, or 10 μM, and the medium was cultured for 24 hours. DMEM+2% FBS+1% P/S was used as the medium. After 24 hours, the cell morphology and apoptosis were observed under a phase contrast microscope. After […] were seeded on a 12-well plate at a ratio of 7.0×10^4 cells and cultured for 24 hours, the medium was removed. EW-7197 (Selleck Chemicals, 57530) was added so that the final concentration would be 0.001, 0.003, 0.01, 0.03, 0.1, 0.3, 1, 3, 10, or 30 μM, and the medium was cultured for 24 hours. DMEM+2% FBS+1% P/S was used as the medium. After 24 hours, the medium was removed. 10 ng/ml of Transforming Growth Factor-132 Human recombinant (WAKO, 200-19911) and EW-7197 were added so that the final concentration would be 0.001, 0.003, 0.01, 0.03, 0.1, 0.3, 1, 3, 10, or 30 μM, and the medium was cultured for 24 hours. DMEM+2% FBS+1% P/S was used as the medium. After 24 hours, the cell morphology and apoptosis were observed under a phase contrast microscope.

fibronectin = experiment: Area of fibronectin expression by immunostaining, Col8a2 knock-in mice (Example 5); format: in vivo; settings: 0.02% eye drop, 8 weeks
Method: 5 μL of 0.02% (about 0.5 mM) EW-7197 eye drop or a base agent (7% DMSO containing PBS) was administered as an eye drop to both eyes of 4-month-old alpha 2 collagen 8 gene (Col8a2) knock-in mice 4 times a day for 8 weeks. The corneal endothelial cell density was measured using a specular microscope KS3M (Konan Medical, Inc.) at before eye drops, and 2, 4, 6, and 8 weeks after eye drops. Mice were euthanized by intraperitoneally administering an excessive amount (200 mg/kg body weight or greater) of anesthetic injection Somnopentyl (Kyoritsu Seiyaku Corporation) 8 weeks after injection. After confirming cardiac arrest, both eye balls were harvested. The harvested eye balls were incised to prepare a corneal fragment. Immunostaining of type I collagen and fibronectin was performed as follows. Image-Pro (Nippon Roper K.K.) was used to analyze the area of type I collagen and fibronectin expression.
After immobilizing a mouse corneal fragment for 10 minutes at room temperature in 4% paraformaldehyde, 0.5% TritonX-100 was added and allowed to permeate for 5 minutes. 1% bovine serum albumin (BSA) was added and the fragment was incubated for 1 hour at room temperature. The corneal fragment was then immersed in a primary antibody solution and reacted overnight at 4° C. […]

iFECD = experiment: Cell survival rate (Cell Titer-Glo Luminescent Cell Viability Assay); format: cell-based, human
Method: were seeded on a 96-well plate at a ratio of 3×10^3 cells per well, and cultured until reaching confluence at 37° C. (5% CO2). DMEM+10% FBS+1% P/S was used as the medium. After 24 hours, the medium was removed. SB431542 (WAKO, 192-16541) and EW-7197 (Selleck Chemicals, 57530) were added so that the final concentration would each be 0.01, 0.1, 1, or 10 μM, and the medium was cultured for 48 hours. DMEM+2% FBS+1% P/S was used as the medium. After 24 hours, the cell morphology was observed under a phase contrast microscope. After observation, the cell survival rate was analyzed using Cell Titer-Glo Luminescent Cell Viability Assay by the following procedures. The medium was discarded so that the amount would be 50 μl per well, and Cell Titer-Glo Luminescent Cell Viability Assay solution (Promega, G7572) was added at 50 μl/well so that the ratio to the medium would be 1:1. The process was hereinafter conducted without exposure to light. The mixture was mixed thoroughly using a shaker for 2 minutes at about 120 min^-1, and incubated for 10 minutes. After the incubation, 80 μl was transferred to an Assay plate (Corning, 3912, Assay plate 96 well, white polystyrene), and absorbance was measured using a GloMax-Multi Detection System (Promega, E7051).

In the case of `Cc1cccc(-c2[nH]c(CNc3ccccc3F)nc2-c2ccc3ncnn3c2)n1` [EW-7197, N-((4-([1,2,4]triazolo[1,5-a]pyridin-6-yl)-5-(6-methylpyridin-2-yl)-1H-imidazol-2-yl)methyl)-2-fluoroaniline], the “effect of suppressing corneal endothelial cell disorder” value ([1]; compound at 3 μM and 10 μM) is reported as “confirmed”, the “effect of suppressing corneal endothelial cell disorder” value ([1]; compound at 0.1, 0.3, and 1 μM) is reported as “effectively suppressed” and the “effect of suppressing corneal endothelial cell disorders” value ([1]; compound at 3 μM and 10 μM) is reported as “effectively suppressed”. For the same compound, the “effect of suppressing corneal endothelial cell disorders” value ([1]; compound at 0.03, 0.1, 0.3, and 1 μM) was “particularly excellent effect of suppressing corneal endothelial cell disorders”, the “effect of suppressing corneal endothelial disorders” value ([1]; summary statement, at a low concentration of 0.03 μM) was “very potent effect of suppressing corneal endothelial disorders” and the “area of fibronectin expression compared to the base agent group” value (fibronectin) was “decreasing trend”. For the same compound, the “cell survival rate compared to a control group” value (iFECD; iFECD, all concentrations of 0.01, 0.1, 1, and 10 μM, 48 hours) was “a significant difference was not found” and the “toxicity to cells in a cell survival rate test” value (iFECD; summary statement) was “hardly found”.
